Measured values taken from patent US10730863B2, “Bridged bicyclic compounds as farnesoid X receptor modulators” (BRISTOL-MYERS SQUIBB COMPANY, priority 2017, dated 2020).

Biological target: FXR (Homo sapiens (Human), UniProt Q96RI1)
Experiment: FXR EC50 (FXR agonist activity reported with each example)
Type: cell-based

Chain of FXR (Q96RI1 262-486): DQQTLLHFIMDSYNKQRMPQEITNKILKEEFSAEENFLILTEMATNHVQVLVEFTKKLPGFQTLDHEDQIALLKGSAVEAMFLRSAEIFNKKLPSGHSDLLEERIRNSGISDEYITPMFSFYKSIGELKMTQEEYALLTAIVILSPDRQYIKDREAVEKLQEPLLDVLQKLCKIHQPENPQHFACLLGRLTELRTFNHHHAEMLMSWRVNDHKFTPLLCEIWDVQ

| Structure (SMILES) | EC50 [nM] |
| --- | --- |
| O=C(O)c1cccc2cc(OCC34CCC(OCc5c(-c6c(Cl)cncc6Cl)noc5C5CC5)(CC3)CC4)cnc12 [Example 352, 3-((4-((5-cyclopropyl-3-(3,5-dichloropyridin-4-yl)isoxazol-4-yl)methoxy)bicyclo[2.2.2]octan-1-yl)methoxy)quinoline-8-carboxylic acid] | 55 |
| O=C(O)c1coc(C23CCC(COCc4c(-c5c(Cl)cccc5Cl)noc4C4CC4)(CC2)CC3)n1 [Example 177, 2-(4-(((5-cyclopropyl-3-(2,6-dichlorophenyl)isoxazol-4-yl)methoxy)methyl)bicyclo[2.2.2]octan-1-yl)oxazole-4-carboxylic acid] | 1800 |
| COCc1cc(C#CC23CCC(OCc4c(-c5c(Cl)cncc5Cl)noc4C4CC4)(CC2)CC3)cc(C(=O)O)c1 [Example 386] | 31 |
| COC(=O)c1cccc(NC(=O)C23CCC(C=Cc4c(-c5c(Cl)cccc5Cl)noc4C4CC4)(CC2)C3)c1 [Example 229] | 3600 |
| O=C(O)c1cc(C(F)(F)F)c2cc(CCC34CCC(OCc5c(-c6c(Cl)cncc6Cl)noc5C5CC5)(CC3)CC4)ccc2n1 [Example 430, 6-(2-(4-((5-cyclopropyl-3-(3,5-dichloropyridin-4-yl)isoxazol-4-yl)methoxy)bicyclo[2.2.2]octan-1-yl)ethyl)-4-(trifluoromethyl)quinoline-2-carboxylic acid] | 24 |
| O=C(O)c1ccnc(C23CCC(OCc4c(-c5c(Cl)cccc5Cl)noc4C4CC4)(CC2)CC3)c1 [Example 137, 2-(4-((5-cyclopropyl-3-(2,6-dichlorophenyl)isoxazol-4-yl)methoxy)bicyclo[2.2.2]octan-1-yl)isonicotinic acid] | 420 |
| O=C(O)c1cccc(OCC23CCC(COCc4c(-c5c(Cl)cccc5Cl)noc4C4CC4)(CC2)CC3)c1 [Example 484, 3-((4-(((5-cyclopropyl-3-(2,6-dichlorophenyl)isoxazol-4-yl)methoxy)methyl)bicyclo[2.2.2]octan-1-yl)methoxy)benzoic acid] | 200 |
| O=C(O)c1cc(C2CC2)c2cc(OCC34CCC(OCc5c(-c6c(Cl)cncc6Cl)noc5C5CC5)(CC3)CC4)ccc2n1 [Example 324, 4-cyclopropyl-6-((4-((5-cyclopropyl-3-(3,5-dichloropyridin-4-yl)isoxazol-4-yl)methoxy)bicyclo[2.2.2]octan-1-yl)methoxy)quinoline-2-carboxylic acid] | 22 |
| COc1ccc(-c2noc(C34CCC(/C=C/c5c(-c6c(Cl)cncc6Cl)noc5C5CC5)(CC3)CC4)n2)cc1C(=O)NS(=O)(=O)C1CC1 [Example 439, (E)-5-(5-(4-(2-(5-cyclopropyl-3-(3,5-dichloropyridin-4-yl)isoxazol-4-yl)vinyl)bicyclo[2.2.2]octan-1-yl)-1,2,4-oxadiazol-3-yl)-N-(cyclopropylsulfonyl)-2-methoxybenzamide] | 280 |
| O=C(O)c1cccc(-c2noc(C34CCC(OCc5c(-c6ccccc6OC(F)(F)F)noc5C5CC5)(CC3)CO4)n2)c1 [Example 199] | 220 |
| CC(C)(O)COc1ccc(C(=O)O)c2ccc(C34CCC(OCc5c(-c6c(Cl)cncc6Cl)noc5C5CC5)(CC3)CC4)nc12 [Example 418, 2-(4-((5-cyclopropyl-3-(3,5-dichloropyridin-4-yl)isoxazol-4-yl)methoxy)bicyclo[2.2.2]octan-1-yl)-8-(2-hydroxy-2-methylpropoxy)quinoline-5-carboxylic acid] | 120 |
| O=C(O)[C@@H]1CCC[C@H](OCC23CCC(OCc4c(-c5ccccc5OC(F)(F)F)noc4C4CC4)(CC2)CC3)C1 [Example 81] | 4700 |
| O=C(O)c1ccc(OC2COC2)c2nc(C34CCC(OCc5c(-c6c(Cl)cncc6Cl)noc5C5CC5)(CC3)CC4)ccc12 [Example 406] | 54 |
| COC(=O)c1ccc(-c2noc(C34CCC(OCc5c(-c6ccccc6OC(F)(F)F)noc5C(C)C)(CC3)CC4)n2)cc1 [Example 35] | 2400 |
| NC(=O)c1cccc(OCC23CCC(OCc4c(-c5c(Cl)cccc5Cl)noc4C4CC4)(CC2)CC3)n1 [Example 117, 6-((4-((5-cyclopropyl-3-(2,6-dichlorophenyl)isoxazol-4-yl)methoxy)bicyclo[2.2.2]octan-1-yl)methoxy)picolinamide] | 310 |
| COc1cc(C(=O)O)c(OC)c(-c2noc(C34CCC(OCc5c(-c6c(Cl)cncc6Cl)noc5C5CC5)(CC3)CC4)n2)c1 [Example 246, 3-(5-(4-((5-cyclopropyl-3-(3,5-dichloropyridin-4-yl)isoxazol-4-yl)methoxy)bicyclo[2.2.2]octan-1-yl)-1,2,4-oxadiazol-3-yl)-2,5-dimethoxybenzoic acid] | 90 |
| COc1ccc(-c2noc(C34CCC(OCc5c(-c6c(Cl)cncc6Cl)noc5C5CC5)(CC3)CO4)n2)cc1C(=O)O [Example 455, 5-(5-(4-((5-cyclopropyl-3-(3,5-dichloropyridin-4-yl)isoxazol-4-yl)methoxy)-2-oxabicyclo[2.2.2]octan-1-yl)-1,2,4-oxadiazol-3-yl)-2-methoxybenzoic acid] | 290 |
| O=C(O)c1ccnc(OCC23CCC(OCc4c(-c5c(Cl)cccc5Cl)noc4C4CC4)(CC2)CC3)c1 [Example 111, 2-((4-((5-cyclopropyl-3-(2,6-dichlorophenyl)isoxazol-4-yl)methoxy)bicyclo[2.2.2]octan-1-yl)methoxy)isonicotinic acid] | 110 |
| O=C(O)c1cccc2nc(C34CCC(C=Cc5c(-c6c(Cl)cccc6Cl)noc5C5CC5)(CC3)CC4)sc12 [Example 184] | 20 |

| Structure (SMILES) | EC50 [nM] |
| --- | --- |
| O=C(O)c1cc(OC2CC2)c2cc(OCC34CCC(OCc5c(-c6c(Cl)cncc6Cl)noc5C5CC5)(CC3)CC4)ccc2n1 [Example 331, 4-cyclopropoxy-6-((4-((5-cyclopropyl-3-(3,5-dichloropyridin-4-yl)isoxazol-4-yl)methoxy)bicyclo[2.2.2]octan-1-yl)methoxy)quinoline-2-carboxylic acid] | 23 |
| O=C(O)c1cc(F)c2nc(C34CCC(OCc5c(-c6ccccc6C(F)(F)F)noc5C5CC5)(CC3)CC4)sc2c1 [Example 51] | 500 |
| O=C(O)c1ccc(OC2CCCC2)c2nc(C34CCC(OCc5c(-c6c(Cl)cncc6Cl)noc5C5CC5)(CC3)CC4)ccc12 [Example 408] | 10 |
| CCOc1cc(OCC23CCC(OCc4c(-c5ccccc5C(F)(F)F)noc4C4CC4)(CC2)CC3)cnc1C(N)=O [Example 299] | 2300 |
| O=C(O)c1ccc(OCC23CCC(OCc4c(-c5ccccc5C(F)(F)F)noc4C4CC4)(CC2)CC3)c2ncccc12 [Example 305] | 104 |
| COC(=O)c1ccc(C23CCC(CNc4c(-c5c(Cl)cccc5Cl)noc4C4CC4)(CC2)CO3)cc1 [Intermediate 203A, methyl 4-(4-(((5-cyclopropyl-3-(2,6-dichlorophenyl)isoxazol-4-yl)amino)methyl)-2-oxabicyclo[2.2.2]octan-1-yl)benzoate] | 2800 |
| O=C(O)c1cc(OCC23CCC(OCc4c(-c5c(Cl)cncc5Cl)noc4C4CC4)(CC2)CC3)cc(C(F)(F)F)c1 [Example 103, 3-((4-((5-cyclopropyl-3-(3,5-dichloropyridin-4-yl)isoxazol-4-yl)methoxy)bicyclo[2.2.2]octan-1-yl)methoxy)-5-(trifluoromethyl)benzoic acid] | 4 |
| O=C(O)c1ccc(O)c2nc(C34CCC(OCc5c(-c6c(Cl)cncc6Cl)noc5C5CC5)(CC3)CC4)ccc12 [Example 407] | 19 |
| NC(=O)c1cc(C(F)(F)F)c2cc(OCC34CCC(OCc5c(-c6c(Cl)cncc6Cl)noc5C5CC5)(CC3)CC4)ccc2n1 [Example 291, 6-((4-((5-cyclopropyl-3-(3,5-dichloropyridin-4-yl)isoxazol-4-yl)methoxy)bicyclo[2.2.2]octan-1-yl)methoxy)-4-(trifluoromethyl)quinoline-2-carboxamide] | 230 |
| O=C(O)c1ccc2nc(C34CCC(/C=C/c5c(-c6c(Cl)cccc6Cl)noc5C5CC5)(CC3)CC4)sc2c1 [Example 180, (E)-2-(4-(2-(5-cyclopropyl-3-(2,6-dichlorophenyl)isoxazol-4-yl)vinyl)bicyclo[2.2.2]octan-1-yl)benzo[d]thiazole-6-carboxylic acid] | 43 |
| O=C(O)c1ccc(CNC(=O)C23CCC(OCc4c(-c5c(Cl)cccc5Cl)noc4C4CC4)(CC2)CC3)cc1 [Example 141, 4-((4-((5-cyclopropyl-3-(2,6-dichlorophenyl)isoxazol-4-yl)methoxy)bicyclo[2.2.2]octane-1-carboxamido)methyl)benzoic acid] | 2800 |
| O=C(O)c1cc(C#CC23CCC(OCc4c(-c5c(Cl)cncc5Cl)noc4C4CC4)(CC2)CC3)cc2cn[nH]c12 [Example 401] | 74 |
| O=C(O)Cc1cccc(OCC23CCC(OCc4c(-c5c(Cl)cccc5Cl)noc4C4CC4)(CC2)CC3)c1 [Example 106, 2-(3-((4-((5-cyclopropyl-3-(2,6-dichlorophenyl)isoxazol-4-yl)methoxy)bicyclo[2.2.2]octan-1-yl)methoxy)phenyl)acetic acid] | 160 |
| O=C(O)c1cccc(-c2nc(C34CCC(OCc5c(-c6ccccc6OC(F)(F)F)noc5C5CC5)(CC3)CC4)no2)c1 [Example 55] | 250 |
| O=C(O)c1cccc(-c2noc(C34CCC(COCc5c(-c6ccccc6OC(F)(F)F)noc5C5CC5)(CC3)CC4)n2)c1 [Example 153] | 320 |
| Cn1nc(C(=O)O)c2ccc(C34CCC(OCc5c(-c6c(Cl)cncc6Cl)noc5C5CC5)(CC3)CC4)nc21 [Example 365] | 49 |
| COC(=O)c1ccc(-c2noc(C34CCC(COCc5c(-c6c(Cl)cccc6Cl)noc5C5CC5)(CC3)CC4)n2)cc1 [Example 156] | 1700 |
| N#Cc1cnc2ccc(OCC34CCC(OCc5c(-c6c(Cl)cncc6Cl)noc5C5CC5)(CC3)CC4)nn12 [Example 462, 6-((4-((5-cyclopropyl-3-(3,5-dichloropyridin-4-yl)isoxazol-4-yl)methoxy)bicyclo[2.2.2]octan-1-yl)methoxy)imidazo[1,2-b]pyridazine-3-carbonitrile] | 220 |
| O=C(O)c1ccc(F)c(C(O)C23CCC(OCc4c(-c5c(Cl)cccc5Cl)noc4C4CC4)(CC2)CC3)c1 (centres unmarked) [Example 121, 3-((4-((5-cyclopropyl-3-(2,6-dichlorophenyl)isoxazol-4-yl)methoxy)bicyclo[2.2.2]octan-1-yl)(hydroxy)methyl)-4-fluorobenzoic acid] | 1500 |
